In US20260001889A1, “COMPOSITIONS USEFUL FOR MODULATING SPLICING” (Skyhawk Therapeutics, Inc., priority 2022, published 2026):

Assays:
[1] = test system: ATXN3 transcripts containing exon 4; test: ATXN3 Quantitative Splicing Assay (qPCR, E4E5 primers/probe); type: cell-based; conditions: Homo sapiens, SK-N-MC cells, compounds for 24 h
Method: Example 34: ATXN3 Quantitative Splicing Assay
Human neuroblastoma SK-N-MC cells were plated in 384-well plates at 20,000 cells/well. Twenty-four hours after plating, cells were treated with compounds for 24 h at appropriate concentrations ranging from 30 μM to 0.6 nM (0.300 DMSO). Treated cells were lysed in 15 μL of lysis buffer, and cDNA was synthesized using the Fast Advanced Cells-to-Ct kit. Two […] of each cDNA was used in qPCR reactions to confirm the exon 4 skipped transcripts of ATXN3. A second set of primers/probe E4E5 was used to detect the transcripts containing exon 4. The third set of primers/probe E8E9 was used to detect total gene level of ATXN3. The qPCR reactions were prepared in 384-well plates in 10 μL volume, using TaqMan™ Fast Advanced Master Mix with primers and probes shown in the table below. Reactions were run in a Quant Studio 6 qPCR instrument with default settings.
The primers and probes are listed below in Table 4.

ATXN3-HiBiT protein = test: ATXN3 Total Protein Assay (Kelly-ATXN3-HiBiT luminescence); type: cell-based; conditions: Kelly-ATXN3-HiBiT cells, 48 h after addition of compound
In short: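 Endogenous ATXN3-HiBiT protein in knock-in Kelly neuroblastoma cells measured by lytic HiBiT luminescence 48 h post-compound (added 24 h after seeding 2000 cells/well). Values are fold changes relative to DMSO, with viability from a parallel CellTiter-Glo plate.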

total ATXN3 protein = test: ATXN3 Total Protein Assay (Mesoscale Discovery, SK-N-MC cells); type: cell-based, Human; conditions: incubation for 48 hours, MSD assay
Method: Example 35: ATXN3 Total Protein Assay
Human neuroblastoma SK-N-MC cells were seeded at 10,000 cells/well in 384 well plates one day prior to compound treatment. The concentrations of compounds were tested at appropriate doses ranging from 30 μM to 0.6 nM. After incubation for 48 hours, the cells were lysed with 25 μL of lysis buffer containing protease inhibitors, and total ATXN3 protein levels were assessed by Mesoscale Discovery (MSD) assay developed with one pair of anti-ATXN3 antibodies. The capture and detect antibodies were raised in mouse and rabbit respectively. Anti-rabbit MSD-ST antibody was used for secondary antibody.
ATXN3 recombinant protein was used for standards. The readouts were captured with 35 μL of MSD read buffer and multi-array 384-well high binding plates.

SMILES | IC50 [1] | EC50 (ATXN3-HiBiT protein) | IC50 (total ATXN3 protein)
N[C@H](Cc1oc2c(NCc3cccs3)cc(Cl)nc2c1Br)[C@H]1CCOC1 (single isomer, unassigned) [Compound 99] | 101 to 500 nM | 501 to 5000 nM | 101 to 500 nM
N[C@H](Cc1oc2c(NCc3cccs3)cc(Cl)nc2c1Br)[C@@H]1CCOC1 (single isomer, unassigned) [Compound 100] | 501 to 5000 nM | 10000 to 40000 nM | 5000 to 10000 nM
N[C@@H](Cc1oc2c(NCc3cccs3)cc(Cl)nc2c1Br)[C@@H]1CCOC1 (single isomer, unassigned) [Compound 214] | 501 to 5000 nM | 501 to 5000 nM | 501 to 5000 nM
N[C@@H](Cc1oc2c(NCc3cccs3)cc(Cl)nc2c1Br)[C@H]1CCOC1 (single isomer, unassigned) [Compound 215] | 10000 to 40000 nM | 10000 to 40000 nM | 10000 to 40000 nM
Cc1c(C[C@H](C)N)oc2c(NCc3nccs3)cc(Cl)nc12 [Compound 9, 2-[(S)-2-aminopropyl]-5-chloro-3-methyl-7-{[(1,3-thiazol-2-yl)methyl]amino}-1-oxa-4-azaindene] | 501 to 5000 nM | – | 501 to 5000 nM
Cc1c(C[C@H](C)N)oc2c(NCc3ccco3)cc(Cl)nc12 [Compound 10, 2-[(S)-2-aminopropyl]-5-chloro-7-(furfurylamino)-3-methyl-1-oxa-4-azaindene] | 501 to 5000 nM | – | 501 to 5000 nM
Cc1c(C[C@H](C)N)oc2c(NCc3cccs3)cc(Cl)nc12 [Compound 11, 2-[(S)-2-aminopropyl]-5-chloro-3-methyl-7-thenylamino-1-oxa-4-azaindene] | 101 to 500 nM | 0.01 to 100 nM | 101 to 500 nM
Cc1c(C[C@H](C)N)oc2c(NCc3ccc(F)s3)cc(Cl)nc12 [Compound 12, 2-[(S)-2-aminopropyl]-5-chloro-7-{[(5-fluoro-2-thienyl)methyl]amino}-3-methyl-1-oxa-4-azaindene] | 501 to 5000 nM | – | 501 to 5000 nM
CC[C@H](N)Cc1oc2c(NCc3cccs3)cc(Cl)nc2c1C [Compound 13, 2-[(S)-2-aminobutyl]-5-chloro-3-methyl-7-thenylamino-1-oxa-4-azaindene] | 101 to 500 nM | 101 to 500 nM | 101 to 500 nM
Cc1c(C[C@@H](N)CC2CC2)oc2c(NCc3cccs3)cc(Cl)nc12 [Compound 14, 2-[(S)-2-amino-3-cyclopropylpropyl]-5-chloro-3-methyl-7-thenylamino-1-oxa-4-azaindene] | 101 to 500 nM | 0.01 to 100 nM | 101 to 500 nM
Cc1c(C[C@H](C)N)oc2c(NCc3cccs3)cc(C#N)nc12 [Compound 15, 2-[(2S)-2-aminopropyl]-3-methyl-7-[(thiophen-2-ylmethyl)amino]furo[3,2-b]pyridine-5-carbonitrile] | 501 to 5000 nM | – | 501 to 5000 nM
C[C@H](N)Cc1oc2c(NCc3cccs3)cc(Cl)nc2c1Cl [Compound 16, 2-[(S)-2-aminopropyl]-3,5-dichloro-7-thenylamino-1-oxa-4-azaindene] | 0.01 to 100 nM | 0.01 to 100 nM | 0.01 to 100 nM
C[C@H](N)Cc1oc2c(NCc3cccs3)cc(Cl)nc2c1Br [Compound 17, 2-[(S)-2-aminopropyl]-3-bromo-5-chloro-7-thenylamino-1-oxa-4-azaindene] | 0.01 to 100 nM | 0.01 to 100 nM | 0.01 to 100 nM
C[C@H](N)Cc1oc2c(NCc3cccs3)cc(Cl)nc2c1C#N [Compound 18, 2-[(S)-2-aminopropyl]-5-chloro-7-thenylamino-1-oxa-4-aza-3-indenecarbonitrile] | 10000 to 40000 nM | 5000 to 10000 nM | 5000 to 10000 nM
C[C@H](N)Cc1oc2c(NCc3cccs3)cc(Cl)nc2c1C1CC1 [Compound 19, 2-[(2S)-2-aminopropyl]-5-chloro-3-cyclopropyl-N-(thiophen-2-ylmethyl)furo[3,2-b]pyridin-7-amine] | 101 to 500 nM | – | 101 to 500 nM
N[C@@H](CO)Cc1oc2c(NCc3cccs3)cc(Cl)nc2c1Br [Compound 20, (R)-2-amino-3-(3-bromo-5-chloro-7-thenylamino-1-oxa-4-aza-2-indenyl)-1-propanol] | 0.01 to 100 nM | 0.01 to 100 nM | 0.01 to 100 nM
N[C@@H](CO)Cc1oc2c(NCc3cccs3)cc(Cl)nc2c1Cl [Compound 21, (R)-2-amino-3-(3,5-dichloro-7-thenylamino-1-oxa-4-aza-2-indenyl)-1-propanol] | 0.01 to 100 nM | 0.01 to 100 nM | 0.01 to 100 nM

SMILES | IC50 [1] | EC50 (ATXN3-HiBiT protein) | IC50 (total ATXN3 protein)
N[C@@H](CO)Cc1oc2c(NCc3ccco3)cc(Cl)nc2c1Br [Compound 22, (R)-2-amino-3-[3-bromo-5-chloro-7-(furfurylamino)-1-oxa-4-aza-2-indenyl]-1-propanol] | 0.01 to 100 nM | 0.01 to 100 nM | 0.01 to 100 nM
N[C@@H](CO)Cc1oc2c(NCc3ccco3)cc(Cl)nc2c1Cl [Compound 23, (R)-2-amino-3-[3,5-dichloro-7-(furfurylamino)-1-oxa-4-aza-2-indenyl]-1-propanol] | 0.01 to 100 nM | 0.01 to 100 nM | 0.01 to 100 nM
N[C@H](Cc1oc2c(NCc3cccs3)cc(Cl)nc2c1Br)CC(F)(F)F [Compound 24, 2-[(R)-2-amino-4,4,4-trifluorobutyl]-3-bromo-5-chloro-7-thenylamino-1-oxa-4-azaindene] | 101 to 500 nM | – | 101 to 500 nM
N[C@H](Cc1oc2c(NCc3cccs3)cc(Cl)nc2c1Cl)CC(F)(F)F [Compound 25, 2-[(R)-2-amino-4,4,4-trifluorobutyl]-3,5-dichloro-7-thenylamino-1-oxa-4-azaindene] | 501 to 5000 nM | 101 to 500 nM | 501 to 5000 nM
N[C@H](Cc1oc2c(NCc3cccs3)cc(Cl)nc2c1Cl)CC1CC1 [Compound 28, 2-[(S)-2-amino-3-cyclopropylpropyl]-3,5-dichloro-7-thenylamino-1-oxa-4-azaindene] | 101 to 500 nM | – | 101 to 500 nM
N[C@H](Cc1oc2c(NCc3ccco3)cc(Cl)nc2c1Cl)CC1CC1 [Compound 29, 2-[(S)-2-amino-3-cyclopropylpropyl]-3,5-dichloro-7-(furfurylamino)-1-oxa-4-azaindene] | 101 to 500 nM | – | 101 to 500 nM
Cc1c(C[C@@H](N)CC(F)(F)F)oc2c(NCc3cccs3)cc(Cl)nc12 [Compound 30, 2-[(R)-2-amino-4,4,4-trifluorobutyl]-5-chloro-3-methyl-7-thenylamino-1-oxa-4-azaindene] | 501 to 5000 nM | – | 501 to 5000 nM
Clc1cc(NCc2cccs2)c2occ(C3CC3)c2n1 [Compound 32, (thenyl)(5-chloro-3-cyclopropyl-1-oxa-4-aza-7-indenyl)amine] | 501 to 5000 nM | – | 501 to 5000 nM
COC[C@H](N)Cc1oc2c(NCc3ccco3)cc(Cl)nc2c1Br [Compound 38, 2-[(R)-2-amino-3-methoxypropyl]-3-bromo-5-chloro-7-(furfurylamino)-1-oxa-4-azaindene] | 101 to 500 nM | – | 0.01 to 100 nM
N[C@@H](CF)Cc1oc2c(NCc3ccco3)cc(Cl)nc2c1Br [Compound 39, 2-[(R)-2-amino-3-fluoropropyl]-3-bromo-5-chloro-7-(furfurylamino)-1-oxa-4-azaindene] | 0.01 to 100 nM | – | 0.01 to 100 nM
Cc1c(C[C@@H](N)[C@@H](C)F)oc2c(NCc3cccs3)cc(Cl)nc12 [Compound 42, 2-[(2R,3R)-2-amino-3-fluorobutyl]-5-chloro-3-methyl-7-thenylamino-1-oxa-4-azaindene] | 501 to 5000 nM | – | 501 to 5000 nM
COC[C@H](N)Cc1oc2c(NCc3ccccc3)cc(Cl)nc2c1Br [Compound 47, 2-[(R)-2-amino-3-methoxypropyl]-7-benzylamino-3-bromo-5-chloro-1-oxa-4-azaindene] | 101 to 500 nM | – | 101 to 500 nM
COC[C@H](N)Cc1oc2c(NCc3nccs3)cc(Cl)nc2c1Br [Compound 49, 2-[(R)-2-amino-3-methoxypropyl]-3-bromo-5-chloro-7-{[(1,3-thiazol-2-yl)methyl]amino}-1-oxa-4-azaindene] | 101 to 500 nM | – | 101 to 500 nM
C[C@H](N)Cc1oc2c(NCc3ccco3)cc(Cl)nc2c1Cl [Compound 54, 2-[(S)-2-aminopropyl]-3,5-dichloro-7-(furfurylamino)-1-oxa-4-azaindene] | 101 to 500 nM | – | 0.01 to 100 nM
N[C@H](Cc1oc2c(NCc3cccs3)cc(Cl)nc2c1Br)CC1CC1 [Compound 55, 2-[(S)-2-amino-3-cyclopropylpropyl]-3-bromo-5-chloro-7-thenylamino-1-oxa-4-azaindene] | 0.01 to 100 nM | – | 0.01 to 100 nM
N[C@H](Cc1oc2c(NCc3ccco3)cc(Cl)nc2c1Br)CC1CC1 [Compound 56, 2-[(S)-2-amino-3-cyclopropylpropyl]-3-bromo-5-chloro-7-(furfurylamino)-1-oxa-4-azaindene] | 0.01 to 100 nM | – | 0.01 to 100 nM
